As usually defined, the MIC50 is an inhibitory concentration at the 50% level, which refers to growth in some studies and to a panel of isolates in others. For orientation: MIC90 means the lowest concentration that inhibits either 90% of growth or 90% of the strains tested, depending on the study. Low readings indicate greater potency, high ones weaker potency.

Values after ≈ are worked out from the molar mass of the structure shown.

For 51 molecules, MIC50 and MIC90 results are on record in ChEMBL document CHEMBL4145615, “Indolyl Azaspiroketal Mannich Bases Are Potent Antimycobacterial Agents with Selective Membrane Permeabilizing Effects and in Vivo Activity” (J Med Chem, 2018).

This assay deals with Mycobacterium tuberculosis variant bovis BCG. Briefly: Antimycobacterial activity against Mycobacterium bovis BCG ATCC 35734 after 5 days by broth dilution method. Type of assay: functional. The settings on record: ATCC 35734, 120 h.
Consider `CCCCCCCCn1cc(CN2CCC3(CC2)OCCCO3)c2ccc(OCCC)cc21`, for which the MIC50 was 0.7 µM (≈ 0.32 µg/mL) and the MIC90 amounted to 1.2 µM (≈ 0.548 µg/mL).

`COc1ccc2c(CN3CCC4(CC3)OCCCO4)cn(C/C=C/c3ccccc3)c2c1` came in with an MIC50 of 4.8 µM (≈ 2.08 µg/mL) and an MIC90 of 9 µM (≈ 3.89 µg/mL).

Molecule `COc1ccc2c(CN3CCCCC3)cn(CCCOc3ccc(F)cc3)c2c1` gave an MIC50 of 20 µM (≈ 7.93 µg/mL) and an MIC90 of 43 µM (≈ 17 µg/mL).

Turning to `CCCCCCCCn1cc(CNCC2CC3CCC2C3)c2ccc(OC)cc21` (configuration not stated), the MIC50 is 1.1 µM (≈ 0.436 µg/mL) and the MIC90 amounted to 1.9 µM (≈ 0.754 µg/mL).

`COc1ccc2c(CN3CCC4(CC3)OCCO4)cn(CCCOc3ccc(C)c(C)c3)c2c1`: the MIC50 came to 4.6 µM (≈ 2.14 µg/mL) and the MIC90 came out at 11 µM (≈ 5.11 µg/mL).

In turn, `CCCCCCCCn1cc(CN2CCCC3(C2)CC3(F)F)c2ccc(OC)cc21` (configuration not stated) registered an MIC50 of 13 µM (≈ 5.44 µg/mL) and an MIC90 of 25 µM (≈ 10.5 µg/mL).

`CCCCCCCCn1ccc2cc(OCCCN3CCCC3)ccc21` came in with an MIC50 of 31 µM (≈ 11.1 µg/mL) and an MIC90 of 48 µM (≈ 17.1 µg/mL).

In turn, `CCCCCCCCn1cc(CN2CCC3(CCO3)CC2)c2ccc(OC)cc21` came in with an MIC50 of 2 µM (≈ 0.797 µg/mL) and an MIC90 of 4 µM (≈ 1.59 µg/mL).

As for `CCCCCCCCn1cc(CN2CCC3(CC2)OC[C@@H](C)O3)c2ccc(OC)cc21`, the MIC50 stood at 0.6 µM (≈ 0.257 µg/mL) and the MIC90 was 0.8 µM (≈ 0.343 µg/mL).

The molecule `CCCCCCCCn1ccc2cc(OCCN3CCCCCC3)ccc21` returned an MIC50 of 2 µM (≈ 0.741 µg/mL) and an MIC90 of 6 µM (≈ 2.22 µg/mL).

For the molecule `CCCCCCCCn1cc(CN2CCC3(CCN(Cc4ccccc4)CC3)CC2)c2ccc(OC)cc21`, the MIC50 is 2.3 µM (≈ 1.19 µg/mL) and the MIC90 was 4.4 µM (≈ 2.27 µg/mL).

As to `CCCCCCCCn1cc(CN2CCCC(=O)CC2)c2ccc(OC)cc21`, the MIC50 was determined as 17 µM (≈ 6.54 µg/mL) and the MIC90 is 42 µM (≈ 16.2 µg/mL).

For `CCCCCCCCn1cc(CN2CCC3(CC2)OCCO3)c2ccc(OCCC)cc21`, the MIC50 amounted to 3 µM (≈ 1.33 µg/mL) and the MIC90 amounted to 5 µM (≈ 2.21 µg/mL).

For the molecule `COc1ccc(OCCCn2cc(CN3CCCCC3)c3ccc(OC)cc32)cc1`, the MIC50 turned out to be 34 µM (≈ 13.9 µg/mL) and the MIC90 is > 50 µM.

The molecule `COc1ccc(OCCCn2cc(CN3CCC4(CC3)OCCCO4)c3ccc(OC)cc32)cc1` registered an MIC50 of 1.5 µM (≈ 0.721 µg/mL) and an MIC90 of 3.5 µM (≈ 1.68 µg/mL).

For `CCCCCCCCn1cc(CNC2CCC3(CC2)OCCO3)c2ccc(OC)cc21`, the MIC50 worked out at 3.6 µM (≈ 1.54 µg/mL) and the MIC90 is 6.3 µM (≈ 2.7 µg/mL).

In turn, `COc1ccc(CCCn2cc(CN3CCC4(CC3)OCCCO4)c3ccc(OC)cc32)cc1` showed an MIC50 of 4.1 µM (≈ 1.9 µg/mL) and an MIC90 of 9.3 µM (≈ 4.32 µg/mL).

In the case of `CCCCCCCCn1cc(CN2CCC3(CC2)OCCO3)c2ccc([N+](=O)[O-])cc21`, the MIC50 amounted to 0.8 µM (≈ 0.344 µg/mL) and the MIC90 stood at 1.6 µM (≈ 0.687 µg/mL).

Turning to `COc1ccc2c(CN3CCCCC3)cn(CCCOCc3ccccc3)c2c1`, the MIC50 stood at 46 µM (≈ 18.1 µg/mL) and the MIC90 is > 50 µM.

`CCCCCCCCn1cc(CN2CCCCC2)c2ccc(C#N)cc21` came in with an MIC50 of 2 µM (≈ 0.703 µg/mL) and an MIC90 of 6 µM (≈ 2.11 µg/mL).

On to `CCCCCCCCn1cc(CN2CCC3(CC2)OCCCO3)c2cccc([N+](=O)[O-])c21`, for which the MIC50 was 1.3 µM (≈ 0.577 µg/mL) and the MIC90 turned out to be 3.1 µM (≈ 1.38 µg/mL).

On to `COc1ccc2c(CN3CCCCC3)cn(CCCOc3ccc(C)cc3)c2c1`, for which the MIC50 came out at 19 µM (≈ 7.46 µg/mL) and the MIC90 turned out to be 41 µM (≈ 16.1 µg/mL).

`CCCCCCCCn1ccc2cc(OCCCN3CCCCCC3)ccc21` showed an MIC50 of 1.9 µM (≈ 0.731 µg/mL) and an MIC90 of 8 µM (≈ 3.08 µg/mL).

`CCCCCCCCn1ccc2cccc(OCCCN3CCCC3)c21` registered an MIC50 of 10 µM (≈ 3.57 µg/mL) and an MIC90 of 22 µM (≈ 7.84 µg/mL).

As for `CCCCCCCCn1ccc2ccc(OCCCN3CCCCC3)cc21`, the MIC50 amounted to 13 µM (≈ 4.82 µg/mL) and the MIC90 came to 25 µM (≈ 9.26 µg/mL).

Regarding `CCCCCCCCn1cc(CN2CCC3(CC2)OCCO3)c2ccc(C#N)cc21`, the MIC50 is 2.5 µM (≈ 1.02 µg/mL) and the MIC90 was determined as 5 µM (≈ 2.05 µg/mL).

`CCCCCCCCn1cc(CN2CCCCC2)c2ccc(OC(C)C)cc21`: the MIC50 worked out at 4 µM (≈ 1.54 µg/mL) and the MIC90 stood at 6 µM (≈ 2.31 µg/mL).

In turn, `COc1ccc2c(CN3CCC4(CC3)OCCCO4)cn(CCCc3ccccc3)c2c1` displayed an MIC50 of 2.6 µM (≈ 1.13 µg/mL) and an MIC90 of 9.8 µM (≈ 4.26 µg/mL).

In turn, `CCCCCCCCn1ccc2cc(OCCCN3CCC4(CC3)OCCCO4)ccc21` displayed an MIC50 of 14 µM (≈ 6.2 µg/mL) and an MIC90 of 31 µM (≈ 13.7 µg/mL).

In turn, `COc1ccc2c(CN3CCCCC3)cn(C/C=C/c3ccccc3)c2c1` yielded an MIC50 of 31 µM (≈ 11.2 µg/mL) and an MIC90 of 49 µM (≈ 17.7 µg/mL).

Turning to `CCCCCCCCn1cc(CN2CCCC3(CC2)OCCCS3)c2ccc(OC)cc21` (configuration not stated), the MIC50 was 0.5 µM (≈ 0.229 µg/mL) and the MIC90 worked out at 1 µM (≈ 0.459 µg/mL).

`COc1ccc2c(CN3CCC4(CC3)OCCCO4)cn(CCCOc3ccc(F)cc3)c2c1`: the MIC50 came out at 1.5 µM (≈ 0.703 µg/mL) and the MIC90 is 2.6 µM (≈ 1.22 µg/mL).

With `CCCCCCCCn1cc(CNCC2CC3CC3C2)c2ccc(OC)cc21` (configuration not stated), the MIC50 amounted to 2 µM (≈ 0.765 µg/mL) and the MIC90 was determined as 4 µM (≈ 1.53 µg/mL).

Turning to `COc1ccc2c(CN3CCCCC3)cn(CCCCOc3ccccc3)c2c1`, the MIC50 is 16 µM (≈ 6.28 µg/mL) and the MIC90 came out at 41 µM (≈ 16.1 µg/mL).

Regarding `CCCCCCCCn1cc(CN2CCC3(CC2)OCCO3)c2ccc(OC(C)C)cc21`, the MIC50 worked out at 3 µM (≈ 1.33 µg/mL) and the MIC90 amounted to 6 µM (≈ 2.66 µg/mL).

As to `CCCCCCCCn1cc(CN2CCCC3(CC2)OCCS3)c2ccc(OC)cc21` (configuration not stated), the MIC50 was 0.7 µM (≈ 0.311 µg/mL) and the MIC90 was 1.2 µM (≈ 0.534 µg/mL).

`COc1ccc2c(CN3CCC4(CC3)OCCO4)cn(C/C=C/c3ccccc3)c2c1`: the MIC50 was found to be 15 µM (≈ 6.28 µg/mL) and the MIC90 amounted to 31 µM (≈ 13 µg/mL).

As to `CCCCCCCCn1ccc2c(OCCCN3CCCC3)cccc21`, the MIC50 worked out at 18 µM (≈ 6.42 µg/mL) and the MIC90 worked out at 36 µM (≈ 12.8 µg/mL).

Regarding `CCCCCCCCn1cc(CN2CC(c3ccccc3)C2)c2ccc(OC)cc21`, the MIC50 amounted to 2 µM (≈ 0.809 µg/mL) and the MIC90 came out at 4 µM (≈ 1.62 µg/mL).

Take `COc1ccc2c(CN3CCCCC3)cn(CCCOc3ccccc3)c2c1`: the MIC50 amounted to 30 µM (≈ 11.4 µg/mL) and the MIC90 turned out to be 50 µM (≈ 18.9 µg/mL).

For `COc1ccc2c(CN3CCC4(CC3)OCCO4)cn(CCCCOc3ccccc3)c2c1`, the MIC50 came to 20 µM (≈ 9.01 µg/mL) and the MIC90 is 41 µM (≈ 18.5 µg/mL).

The molecule `CCCCCCCCn1cc(CN2CCC3(CC2)OCCCO3)c2ccc(C#N)cc21` showed an MIC50 of 0.5 µM (≈ 0.212 µg/mL) and an MIC90 of 1.2 µM (≈ 0.508 µg/mL).

The molecule `COc1ccc2c(CN3CCC4(CC3)OCCCO4)cn(CCCCc3ccccc3)c2c1` gave an MIC50 of 1.6 µM (≈ 0.718 µg/mL) and an MIC90 of 3.1 µM (≈ 1.39 µg/mL).

Regarding `COc1ccc2c(CN3CCC4(CC3)OCCO4)cn(CCCOc3ccc(F)cc3)c2c1`, the MIC50 is 5 µM (≈ 2.27 µg/mL) and the MIC90 was 11 µM (≈ 5 µg/mL).

`CCCCCCCCn1cc(CN2CCOC3(CCCOC3)C2)c2ccc(OC)cc21` (configuration not stated) showed an MIC50 of 1.8 µM (≈ 0.772 µg/mL) and an MIC90 of 6.3 µM (≈ 2.7 µg/mL).

In turn, `CCCCCCCCn1cc(CN2CCCCC2)c2ccc([N+](=O)[O-])cc21` returned an MIC50 of 4 µM (≈ 1.49 µg/mL) and an MIC90 of 5 µM (≈ 1.86 µg/mL).

In the case of `COc1ccc2c(CN3CCC4(CC3)OCCO4)cn(CCCOc3ccccc3)c2c1`, the MIC50 is 3 µM (≈ 1.31 µg/mL) and the MIC90 was 10 µM (≈ 4.37 µg/mL).

Molecule `CCCCCCCCn1cc(CN2CCC3(CC2)OCCCO3)c2c([N+](=O)[O-])cccc21` registered an MIC50 of 10 µM (≈ 4.44 µg/mL) and an MIC90 of 25 µM (≈ 11.1 µg/mL).

The molecule `CCCCCCCCn1cc(CNC2CCC(=O)CC2)c2ccc(OC)cc21` returned an MIC50 of 15 µM (≈ 5.77 µg/mL) and an MIC90 of 24 µM (≈ 9.23 µg/mL).

Consider `CCCCCCCCn1cc(CN2CCC3(CC2)OCCCO3)c2ccc(OC(C)C)cc21`, for which the MIC50 was 0.6 µM (≈ 0.274 µg/mL) and the MIC90 worked out at 1.6 µM (≈ 0.731 µg/mL).

Turning to `CCCCCCCCn1ccc2c(OCCCN3CCCCCC3)cccc21`, the MIC50 came out at 9.5 µM (≈ 3.65 µg/mL) and the MIC90 was 22 µM (≈ 8.46 µg/mL).
